What was measured:
[1] = tested on: tumor nodules in the liver; assay: Orthotopic mouse model: histopathological evaluation of liver; type: in vivo, female athymic nude mice (Swiss nu/nu)
Procedure: Six-week-old female athymic nude mice (Swiss nu/nu) were anesthetized, and a minimally invasive midline laparotomy was performed to localize the cecum. The cecum was then gently pulled out, and luciferase-transfected HCT-8/E11 cells (1 × 10^6 cells) in 20 μL serum-free DMEM medium with Matrigel (1:1) were injected into the cecal wall. Before implantation, cells were treated with EntF* (10^2 nM), Phr0662 (10^2 nM), vehicle (PBS), or TGFα positive control (0.1 μg mL^−1) solutions for 5 days. The cecum was then carefully placed back into the abdominal cavity and the surgical incision was closed with two layers of sutures with PDS 6-0. […] Once a week, mice were examined for tumor growth and metastases using bioluminescent imaging with the IVIS Lumina II (Perkin Elmer, Belgium) after i.p. injection with 200 μL luciferin (150 mg kg^−1). After 6 weeks, mice were euthanized using cervical dislocation, and the liver, diaphragm, lungs, cecum, duodenum, and peritoneum were macroscopically examined for the presence of tumor nodules. Liver and lung tissues were then fixed in formalin for 24 h and stored in 70% ethanol for maximum 3 days before embedding in paraffin. Next, a hematoxylin and eosin (H&E) staining was performed on 8 μm sections, and 3 sections per mouse were visualized using microscopy. Slides from tumor-bearing mice were analyzed by two blinded, independent investigators using the scoring system described in Additional file 5: Table S3. In case of differences, slides were scored by a third blinded, independent investigator for consensus.

[2] = Serum kinetic profile and daily EntF* exposure after i.p. injection; type: in vivo, female Swiss nu/nu mice
Procedure: Fifty microliters of serum were mixed with 150 μL 0.5% formic acid in acetonitrile. After sonication for 5 min, samples were vortexed for 5 s, then heated for 30 s at 100 °C. The solution was vortexed and centrifuged for 20 min at 20,000g at 4 °C. The supernatant was purified using solid phase extraction (SPE) on HyperSep C18 plates (Thermo Fisher Scientific, Belgium), previously conditioned with acetonitrile and equilibrated with 75% acetonitrile in water, containing 0.375% formic acid. After loading 150 μL of each sample, 120 μL eluent were collected and organic solvents evaporated using nitrogen (1 L/min) for 5 min. The resulting samples were further diluted with 30 μL of BSA-based anti-adsorption solution, and analyzed by LC-MS.
EntF* was detected and quantified on a Waters Acquity® UPLC H-class system, connected to a Waters Xevo™ TQ-S triple quadrupole mass spectrometer with electrospray ionization (operated in positive ionization mode). Autosampler tray and column oven were kept at 10 ± 5 °C and 60 ± 5 °C, respectively. Chromatographic separation was achieved on a Waters Acquity® UPLC BEH Peptide C18 column (300 Å, 1.7 μm, 2.1 mm × 100 mm). The mobile phases consisted of 93/2/5 water/acetonitrile/DMSO (V/V/V) containing 0.1% formic acid (mobile phase A) and 2/93/5 water/acetonitrile/DMSO (V/V/V) containing 0.1% formic acid (mobile phase B), and the flow rate was set to 0.5 mL/min. A 10-μL aliquot from each sample was injected. The gradient program started with 80% of mobile phase A for 1 min, followed by a linear gradient to 40% of mobile phase A for 3.5 min. Gradient was then changed to 14.2% mobile phase A at 5 min, followed by a 1 min equilibration, before starting conditions were applied. EntF* retention time was between 4.25 and 4.45 min.
To calculate daily peptide exposure, female Swiss nu/nu mice (n = 14) were i.p. injected with 25 μL of 100 μM EntF*, their serum withdrawn at different time points and analyzed by LC1-MS1. A distribution and early exponential phase (α, 0-30 min), followed by a terminal elimination phase (β, 30–180 min) could be distinguished. The exposure was determined over a period of 24 h (x) as follows: ExposurenMxmin=∫030Ae^-αt+∫30xBe^-βt .

For `CC(C)C[C@@H]1NC(=O)[C@H](CO)NC(=O)[C@H](Cc2ccccc2)NC(=O)[C@H](C(C)C)NC(=O)[C@@H](NC(=O)[C@H](CCC(=O)O)NC(=O)[C@@H](NC(=O)[C@H](CC(C)C)NC(=O)[C@H](CC(N)=O)NC(=O)[C@@H](N)CO)C(C)C)CSSC[C@@H](C(=O)N[C@@H](CC(N)=O)C(=O)O)NC(=O)[C@H](CCCCN)NC(=O)[C@H](CCCCN)NC(=O)[C@H](Cc2ccccc2)NC1=O` (single isomer, unassigned) [EntF*], the “number of tumor nodules in the liver compared to the vehicle” value ([1]; 6 weeks of treatment, H&E histopathological score, n = 30 EntF*, n = 8 PBS) was “significantly higher number of tumor nodules”, the “Histology scoring LIVER, conclusion per group” value ([1]; per group) was 1 and the “Daily exposure during CRC experiment, Exposure (nM*min), Distribution phase” value ([2]; after 100 nmol kg-1 EntF* i.p. injection) was 74.91 nM·min. The “Distribution phase, serum level, Average” value ([2]; after 100 nmol kg-1 EntF* i.p. injection, 5 min, mean of n = 4) was 4.2292, the “Distribution phase, serum level, Average” value ([2]; after 100 nmol kg-1 EntF* i.p. injection, 10 min, mean of n = 4) was 2.596 and the “Distribution phase, serum level, Average” value ([2]; after 100 nmol kg-1 EntF* i.p. injection, 15 min, mean of n = 4) was 2.427. The “Elimination phase, serum level, Average” value ([2]; after 100 nmol kg-1 EntF* i.p. injection, 60 min, mean of n = 4) was 0.2851, the “Elimination phase, serum level, Average” value ([2]; after 100 nmol kg-1 EntF* i.p. injection, 120 min, mean of n = 4) was 0.389 and the level at time molar at 0.5 h ([2]; female, Swiss nu/nu, mouse, serum, ip, after 100 nmol kg-1 EntF* i.p. injection, 30 min, mean of n = 4, read-out: Distribution phase / Elimination phase, serum level, Average) was 0.854 nM. The level at time molar at 3 h ([2]; female, Swiss nu/nu, mouse, serum, ip, after 100 nmol kg-1 EntF* i.p. injection, 180 min, mean of n = 4, read-out: Elimination phase, serum level, Average) was 0.195 nM, the “EntF* serum concentration” value ([2]; serum, 5 min after i.p. injection, Xgem (mean of 4 values)) was 4.2292 nM and the “EntF* serum concentration” value ([2]; serum, 10 min after i.p. injection, Xgem (mean of 4 values)) was 2.5962 nM. For the same compound, the “EntF* serum concentration” value ([2]; serum, 15 min after i.p. injection, Xgem (mean of 4 values)) was 2.4271 nM, the “EntF* serum concentration” value ([2]; serum, 30 min after i.p. injection, Xgem (mean of 4 values)) was 0.8544 nM and the “EntF* serum concentration” value ([2]; serum, 60 min after i.p. injection, Xgem (mean of 4 values)) was 0.2851 nM. For the same compound, the “EntF* serum concentration” value ([2]; serum, 120 min after i.p. injection, Xgem (mean of 4 values)) was 0.3890 nM, the “EntF* serum concentration” value ([2]; serum, 180 min after i.p. injection, replicate X1,2) was 0.4699 nM and the “EntF* serum concentration” value ([2]; serum, 180 min after i.p. injection, replicate X2,2) was 0.5336 nM.

Reference: article PMC9238271, “The quorum sensing peptide EntF* promotes colorectal cancer metastasis in mice: a new factor in the host-microbiome interaction” (BMC Biology, 2022)
